Results: PubChem BioAssay AID248 (DTP/NCI, 2004)
“And” between values parts separate entries of the source, which are not always exact repeats. Identical values can stand only once. Inconclusive results and toxic doses are left out. No stated cut-off is given here; in the data, active means T/C of 150% or more; inactive means T/C below 125%. Bridge positions count the residues as written; N and C are the ends. Square brackets hold non-standard residues; d marks the D form. Peptide text beside a SMILES is read from it. I, II: the chains in the order shown. * marks the point of attachment. Quinoxaline2carbonyl = O=C(c1cnc2ccccc2n1)*; NMeV = CN[CH](C(=O)O)C(C)C; NMeC = CN[CH](CS)C(=O)O

Tested on: L1210 leukemia ip in BDF1 mice, survival T/C
Test: NCI In Vivo Anticancer Drug Screen. Data for tumor model L1210 Leukemia (intraperitoneal) in B6D2F1 (BDF1) mice
Settings: endpoint: mean survival time, higher = longer survival
Method in brief: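 Antitumor effect is assessed in tumor-bearing animals. Survival in the compound arm is compared with a vehicle-dosed control arm and expressed as their quotient.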

[1] = dose: 100.0 mg/kg/injection, schedule: Q01DX001 (ip), vehicle: carboxymethylcellulose (CMC)
[2] = dose: 200.0 mg/kg/injection, schedule: Q01DX001 (ip), vehicle: carboxymethylcellulose (CMC)
[3] = dose: 400.0 mg/kg/injection, schedule: Q01DX001 (ip), vehicle: carboxymethylcellulose (CMC)
[4] = dose: 100.0 mg/kg/injection, schedule: Q01DX001 (ip), vehicle: saline
[5] = dose: 200.0 mg/kg/injection, schedule: Q01DX001 (ip), vehicle: saline
[6] = dose: 400.0 mg/kg/injection, schedule: Q01DX001 (ip), vehicle: saline
[7] = dose: 100.0 mg/kg/injection, schedule: Q01DX009 (ip), vehicle: Klucel (hydroxypropylcellulose) (HPC)
[8] = dose: 200.0 mg/kg/injection, schedule: Q01DX009 (ip), vehicle: Klucel (hydroxypropylcellulose) (HPC)
[9] = dose: 400.0 mg/kg/injection, schedule: Q01DX009 (ip), vehicle: Klucel (hydroxypropylcellulose) (HPC)
[10] = dose: 100.0 mg/kg/injection, schedule: Q04DX003 (ip), vehicle: Klucel (hydroxypropylcellulose) (HPC)
[11] = dose: 200.0 mg/kg/injection, schedule: Q04DX003 (ip), vehicle: Klucel (hydroxypropylcellulose) (HPC)
[12] = dose: 400.0 mg/kg/injection, schedule: Q04DX003 (ip), vehicle: Klucel (hydroxypropylcellulose) (HPC)
[13] = dose: 100.0 mg/kg/injection, schedule: Q01DX001 (ip), vehicle: Klucel (hydroxypropylcellulose) (HPC)
[14] = dose: 100.0 mg/kg/injection, schedule: Q04DX002 (ip), vehicle: saline with Tween-80
[15] = dose: 200.0 mg/kg/injection, schedule: Q04DX002 (ip), vehicle: saline with Tween-80
[16] = dose: 400.0 mg/kg/injection, schedule: Q04DX002 (ip), vehicle: saline with Tween-80

Measured: T/C

CC1NC(=O)C(NC(=O)c2cnc3ccccc3n2)COC(=O)C(C(C)C)N(C)C(=O)C2CSSCC(C(=O)N(C)C(C(C)C)C(=O)OCC(NC(=O)c3cnc4ccccc4n3)C(=O)NC(C)C(=O)N2C)N(C)C1=O (stereo not given) (I: Quinoxaline2carbonyl-SA[NMeC][NMeV] / II: Quinoxaline2carbonyl-SA[NMeC][NMeV]; ester I:1-II:C, I:C-II:1; disulfide I:3-II:3; configuration not given here)
inactive: dose: 12.5 micrograms/kg/injection, schedule: Q01DX009 (ip), vehicle: other 106 % of control | dose: 25.0 micrograms/kg/injection, schedule: Q01DX009 (ip), vehicle: other 116 % of control | dose: 50.0 micrograms/kg/injection, schedule: Q01DX009 (ip), vehicle: other 119 % of control | dose: 100.0 micrograms/kg/injection, schedule: Q01DX009 (ip), vehicle: other 122 % of control

CC1=C(C)C(C)(Cl)C1(C)Cl (stereo not given)
inactive: dose: 75.0 mg/kg/injection, schedule: Q01DX001 (ip), vehicle: acetone 108 % of control | dose: 150.0 mg/kg/injection, schedule: Q01DX001 (ip), vehicle: acetone 95 % of control

COP(=O)(OC)OC1C(=O)NC(=O)NC1=O
inactive: dose: 50.0 mg/kg/injection, schedule: Q01DX001 (ip), vehicle: carboxymethylcellulose (CMC) 98 % of control | [1] 93 % of control | [2] 96 % of control | [3] 96 % of control

O=C(O)CN(CC(=O)O)c1ccccc1
inactive: dose: 50.0 mg/kg/injection, schedule: Q01DX001 (ip), vehicle: saline 103 % of control | [4] 92 % of control | [5] 103 % of control | [6] 95 % of control

OCCNc1nc2ccccc2c2ccccc12
inactive: dose: 75.0 mg/kg/injection, schedule: Q01DX001 (ip), vehicle: carboxymethylcellulose (CMC) 98 % of control | dose: 150.0 mg/kg/injection, schedule: Q01DX001 (ip), vehicle: carboxymethylcellulose (CMC) 112 % of control

CC(=O)c1ccccc1OC(F)(F)C(F)Cl (stereo not given)
inactive: [4] 101 % of control | [5] 103 % of control | [6] 103 % of control

O=c1c2ccccc2nc(-c2ccccc2)n1/N=C/c1ccccc1O
inactive: [7] 103 % of control | [8] 103 % of control | [9] 100 % of control

CC(=O)Nc1ccc2c(O)cc(S(=O)(=O)O)cc2c1
inactive: dose: 50.0 mg/kg/injection, schedule: Q01DX009 (ip), vehicle: saline 95 % of control | dose: 100.0 mg/kg/injection, schedule: Q01DX009 (ip), vehicle: saline 99 % of control | dose: 100.0 mg/kg/injection, schedule: Q04DX003 (ip), vehicle: saline 101 % of control | dose: 200.0 mg/kg/injection, schedule: Q01DX009 (ip), vehicle: saline 100 % of control | dose: 200.0 mg/kg/injection, schedule: Q04DX003 (ip), vehicle: saline 104 % of control | dose: 400.0 mg/kg/injection, schedule: Q04DX003 (ip), vehicle: saline 98 % of control

CCOc1ccc(CCC(=O)O)cc1
inactive: [10] 100 % of control | [11] 105 % of control | [12] 94 % of control

O=C(CCCN1CC=C(c2ccccc2)CC1)c1ccc(N2CCC(O)(c3ccc(Cl)cc3)CC2)cc1
inactive: [13] 89 % of control | dose: 200.0 mg/kg/injection, schedule: Q01DX001 (ip), vehicle: Klucel (hydroxypropylcellulose) (HPC) 95 % of control | dose: 400.0 mg/kg/injection, schedule: Q01DX001 (ip), vehicle: Klucel (hydroxypropylcellulose) (HPC) 92 % of control

CCOC(=O)CNc1ccc(F)c(C(F)(F)F)c1
inactive: dose: 100.0 mg/kg/injection, schedule: Q04DX002 (ip), vehicle: saline 95 % of control and 107 % of control | dose: 200.0 mg/kg/injection, schedule: Q04DX002 (ip), vehicle: saline 103 % of control and 92 % of control | dose: 400.0 mg/kg/injection, schedule: Q04DX002 (ip), vehicle: saline 110 % of control | dose: 600.0 mg/kg/injection, schedule: Q04DX002 (ip), vehicle: saline 95 % of control

Cc1c(O)c2ccccc2[nH]c1=O
inactive: [14] 97 % of control | [15] 103 % of control | [16] 106 % of control

CCOC=Nc1cc[n+]([O-])nc1C
inactive: dose: 43.75 mg/kg/injection, schedule: Q04DX002 (ip), vehicle: saline 104 % of control | dose: 87.5 mg/kg/injection, schedule: Q04DX002 (ip), vehicle: saline 104 % of control | dose: 175.0 mg/kg/injection, schedule: Q04DX002 (ip), vehicle: saline 104 % of control

CSc1nc(N)nc2ncc(CN(C)c3ccc(C(=O)O)cc3)nc12
inactive: dose: 8.0 mg/kg/injection, schedule: Q01DX009 (ip), vehicle: DMSO 100 % of control | dose: 12.0 mg/kg/injection, schedule: Q01DX009 (ip), vehicle: DMSO 98 % of control | dose: 18.0 mg/kg/injection, schedule: Q01DX009 (ip), vehicle: DMSO 100 % of control | dose: 25.0 mg/kg/injection, schedule: Q01DX009 (ip), vehicle: DMSO 88 % of control | dose: 50.0 mg/kg/injection, schedule: Q01DX001 (ip), vehicle: DMSO 91 % of control

CCO/C=C1\SC(=S)N(c2ccc(OCC)cc2)C1=O
inactive: [7] 98 % of control | [10] 98 % of control | [8] 95 % of control | [11] 98 % of control | [9] 98 % of control | [12] 97 % of control

Oc1ccc2ccccc2c1/C=C/c1ccncc1
inactive: dose: 6.25 mg/kg/injection, schedule: Q01DX009 (ip), vehicle: Klucel (hydroxypropylcellulose) (HPC) 96 % of control | dose: 12.5 mg/kg/injection, schedule: Q01DX009 (ip), vehicle: Klucel (hydroxypropylcellulose) (HPC) 97 % of control | dose: 25.0 mg/kg/injection, schedule: Q01DX001 (ip), vehicle: Klucel (hydroxypropylcellulose) (HPC) 98 % of control | dose: 25.0 mg/kg/injection, schedule: Q01DX009 (ip), vehicle: Klucel (hydroxypropylcellulose) (HPC) 100 % of control | dose: 50.0 mg/kg/injection, schedule: Q01DX001 (ip), vehicle: Klucel (hydroxypropylcellulose) (HPC) 102 % of control | dose: 50.0 mg/kg/injection, schedule: Q01DX009 (ip), vehicle: Klucel (hydroxypropylcellulose) (HPC) 89 % of control | [13] 105 % of control and 91 % of control

CCC/C(=N/OC(=O)N(C)C)c1ccccc1
inactive: [1] 97 % of control | [2] 98 % of control | [3] 101 % of control

C=CCNC(=S)N(CCC#N)C1CCCCC1
inactive: [14] 101 % of control | [15] 90 % of control | [16] 93 % of control

Cc1ccc(S(=O)(=O)OCC2CCC(COS(=O)(=O)c3ccc(C)cc3)O2)cc1 (stereo not given)
inactive: [10] 103 % of control | [11] 100 % of control

Clc1cc2nsnc2c2ccccc12
inactive: dose: 200.0 mg/kg/injection, schedule: Q04DX002 (ip), vehicle: gum acacia 95 % of control

CCOC(=O)c1ncn(C2OC(CO)C(O)C2O)c1N (stereo not given)
inactive: dose: 12.5 mg/kg/injection, schedule: Q01DX005 (ip), vehicle: saline with Tween-80 90 % of control | dose: 25.0 mg/kg/injection, schedule: Q01DX005 (ip), vehicle: saline with Tween-80 100 % of control | dose: 50.0 mg/kg/injection, schedule: Q01DX005 (ip), vehicle: saline with Tween-80 90 % of control | dose: 100.0 mg/kg/injection, schedule: Q01DX005 (ip), vehicle: saline with Tween-80 92 % of control | dose: 200.0 mg/kg/injection, schedule: Q01DX005 (ip), vehicle: saline with Tween-80 93 % of control

Brc1ccc(SSc2ccc(Br)cc2)cc1
inactive: [4] 110 % of control | [5] 95 % of control | [6] 95 % of control

COc1ccc(NC(=O)c2ccccc2Cl)cc1
inactive: [7] 97 % of control | [10] 105 % of control | [8] 95 % of control | [11] 97 % of control | [9] 95 % of control | [12] 96 % of control

Cn1c(C(=O)O)cc2ccccc21
inactive: [7] 110 % of control | [8] 112 % of control | [9] 96 % of control

CN1CCCC1c1cccc([N+](=O)[O-])c1 (stereo not given)
inactive: dose: 100.0 mg/kg/injection, schedule: Q01DX001 (ip), vehicle: acetone 93 % of control

C/C=C/CC1(C(C)C)C(=O)NC(=S)NC1=O
inactive: dose: 75.0 mg/kg/injection, schedule: Q01DX001 (ip), vehicle: saline 93 % of control
